Consider 10 compounds from EP4692061A1, “LOW-MOLECULAR-WEIGHT COMPOUND HAVING CEREBLON-BINDING ACTIVITY, AND USE THEREOF” (Aevis Bio, Inc., priority 2023, dated 2024).

Each structure is given as a SMILES string.

The test system of one data set is A549. The experiment in a line: Tumor cell viability, CCK-8 assay, A549. The format is cell-based. The note with it: A549 (human lung cancer); compound treatment 1uM; 2 days. The protocol: (§1) To examine whether the compounds having CRBN-binding activity according to the present invention exert tumor cell apoptosis effects, the assay was conducted using various human cancer cell lines, including human multiple myeloma cell lines (MM.1S and MM.1R-LR), a human breast cancer cell line (MDA-MB-231), a human lung cancer cell line (A549), a human rhabdomyosarcoma cell line (RD), and a human lymphoma cell line (Jeko-1).
(§2) The MM.1S, MM.1R-LR, MDA-MB-231, A549, RD, and Jeko-1 cell lines were obtained from the American Type Culture Collection (ATCC, Manassas, VA, USA) and cultured in RPMI 1640 medium (Corning, MD, USA) or DMEM (Corning, MD, USA) supplemented with 10% fetal bovine serum (FBS) (Corning, MD, USA), 100 U/mL penicillin (Corning, MD, USA), and 100 µg/mL streptomycin (Corning, MD, USA) at 37°C in a 5% CO2 incubator for 24 hours. The cells were seeded at a density of 1 × 10^4 cells/well in 96-well plates and incubated for 24 hours. After incubation, the test compounds dissolved in dimethyl sulfoxide (DMSO, CAS No.: 67-68-5) were serially diluted to a final concentration of 10 µM and applied to the cells. Following an additional incubation for 2 to 5 days, the analysis was performed using a CCK-8 assay kit (Dojindo, Japan) according to the manufacturer's instructions.
For orientation: Tetrazolium assays rely on reduction of a dye to a coloured formazan, in cell work by metabolically active cells.

Another data set addresses cereblon (CRBN) (Homo sapiens, UniProt Q96SW2). In words: In vitro CRBN binding assay (AlphaScreen, competitive inhibition of the PROTAC assay). The note with it: Table 1; AlphaScreen, PROTAC Optimization Kit for BET Bromodomain-Cereblon Binding; read-out: Alpha IC50. On the technique in general: Alpha assays give light when donor and acceptor beads are brought close together.

In a further data set the test system is Jeko-1. In words: Tumor cell viability, CCK-8 assay, Jeko-1. In kind it is cell-based. The following applies: Jeko-1 (human lymphoma); compound treatment 1uM; 3 days. The protocol:
as §1, §2

The next data set concerns MM.1R-LR. In words: Tumor cell viability, CCK-8 assay, MM.1R-LR. The format is cell-based. The note with it: MM.1R-LR (drug-resistant human multiple myeloma); compound treatment 1uM; 5 days. As for the experimental part: as §1, §2
A further data set has as its system MDA-MB-231. In words: Tumor cell viability, CCK-8 assay, MDA-MB-231. The format is cell-based. The note with it: MDA-MB-231 (human breast cancer); compound treatment 1uM; 2 days. The protocol:
as §1, §2

The subject of the next data set is RD. In words: Tumor cell viability, CCK-8 assay, RD. The format is cell-based. The note with it: RD (human rhabdomyosarcoma); compound treatment 1uM; 3 days. The protocol: as §1, §2
The test system of the next data set is MM.1S. In words: Tumor cell viability, CCK-8 assay, MM.1S. The format is cell-based. The note with it: MM.1S (human multiple myeloma); compound treatment 1uM; 5 days. As for the experimental part: as §1, §2

The term IC50 denotes the concentration needed to halve the response being measured.

For the compound `CCCCCCCCc1ccc(C(=O)Nc2cccc(S(=O)(=O)Nc3cccc(C4CCC(=O)NC4=O)c3)c2)cc1` (stereo not shown) [AEV40264, N-(3-(N-(3-(2,6-dioxopiperidin-3-yl)phenyl)sulfamoyl)phenyl)-4-octylbenzamide], the “Cell viability (% of control)” value with A549 is recorded as 61.8 % of control; in the data set with Jeko-1 it was 5.8 % of control; in the data set on MM.1R-LR it was 79.8 % of control; in the data set with MDA-MB-231, 46.3 % of control; with RD it was 67.9 % of control; with MM.1S, 13.3 % of control. Also, the IC50 at cereblon (CRBN) stood at 0.32 µM.
As to `O=C1CCC(c2cccc(NS(=O)(=O)c3cccc(NC(=O)c4ccc(CCCCCCl)cc4)c3)c2)C(=O)N1` (stereo not shown) [AEV41047, 4-(5-chloropentyl)-N-(3-(N-(3-(2,6-dioxopiperidin-3-yl)phenyl)sulfamoyl)phenyl)benzamide], the “Cell viability (% of control)” value with A549 is on record as 32.2 % of control; in the data set with Jeko-1 it was 15.7 % of control; in the data set with MM.1R-LR, 56.9 % of control; in the data set with MDA-MB-231, 28.2 % of control; in the data set on RD it was 20.5 % of control; with MM.1S it was 14.9 % of control. The IC50 on cereblon (CRBN) is 1.88 µM.
Consider `O=C1CCC(c2cccc(NS(=O)(=O)c3cccc(NC(=O)c4ccc(CCCCCCCl)cc4)c3)c2)C(=O)N1` (stereo not shown) [AEV41048, 4-(6-chlorohexyl)-N-(3-(N-(3-(2,6-dioxopiperidin-3-yl)phenyl)sulfamoyl)phenyl)benzamide], for which the “Cell viability (% of control)” value with A549 is 47.0 % of control; with Jeko-1, 13.0 % of control; in the data set on MM.1R-LR, 51.5 % of control; with MDA-MB-231, 45.6 % of control; in the data set on RD, 54.0 % of control; in the data set on MM.1S it was 10.8 % of control. In addition, the IC50 on cereblon (CRBN) came to 2.59 µM.
As to `CCCCCc1ccc(C(=O)Nc2cccc(S(=O)(=O)Nc3cccc(C4CCC(=O)NC4=O)c3)c2)cc1` (stereo not shown) [AEV41013, N-(3-(N-(3-(2,6-dioxopiperidin-3-yl)phenyl)sulfamoyl)phenyl)-4-pentylbenzamide], the “Cell viability (% of control)” value with A549 is reported as 25.8 % of control; in the data set on Jeko-1, 11.8 % of control; in the data set on MM.1R-LR it was 55.2 % of control; in the data set on MDA-MB-231 it was 38.5 % of control; with RD it was 30.0 % of control; in the data set on MM.1S it was 15.3 % of control. In addition, the IC50 at cereblon (CRBN) was 0.36 µM.
`O=C1CCC(c2cccc(NS(=O)(=O)c3cccc(NC(=O)c4ccc(CCCCl)cc4)c3)c2)C(=O)N1` (stereo not shown) [AEV41004, 4-(3-chloropropyl)-N-(3-(N-(3-(2,6-dioxopiperidin-3-yl)phenyl)sulfamoyl)phenyl)benzamide]: the “Cell viability (% of control)” value in the data set on A549 was 101.9 % of control; in the data set on MM.1R-LR, 63.8 % of control; in the data set on MDA-MB-231 it was 83.5 % of control; in the data set with RD, 78.6 % of control; with MM.1S, 10.5 % of control. Also, at cereblon (CRBN), the IC50 is 1.57 µM.
With `O=C1CCC(c2cccc(NS(=O)(=O)c3cccc(NC(=O)c4ccc(CCCl)cc4)c3)c2)C(=O)N1` (stereo not shown) [AEV41003, 4-(2-chloroethyl)-N-(3-(N-(3-(2,6-dioxopiperidin-3-yl)phenyl)sulfamoyl)phenyl)benzamide], the “Cell viability (% of control)” value in the data set on A549 is 104.0 % of control; in the data set on MM.1R-LR, 79.9 % of control; in the data set on MDA-MB-231, 97.0 % of control; in the data set on MM.1S, 92.1 % of control. For the same compound, the IC50 at cereblon (CRBN) stood at 0.77 µM.
Consider `CCCCCCc1ccc(C(=O)Nc2cccc(S(=O)(=O)Nc3cccc(C4CCC(=O)NC4=O)c3)c2)cc1` (stereo not shown) [AEV41083, N-(3-(N-(3-(2,6-dioxopiperidin-3-yl)phenyl)sulfamoyl)phenyl)-4-hexylbenzamide], for which the “Cell viability (% of control)” value in the data set on A549 is reported as 29.5 % of control; in the data set with Jeko-1 it was 9.7 % of control; with MM.1R-LR, 54.7 % of control; in the data set with MDA-MB-231, 35.5 % of control; in the data set on RD, 31.4 % of control; in the data set on MM.1S, 17.8 % of control. For the same compound, on cereblon (CRBN), the IC50 was determined as 0.91 µM.
For `CCCCCCCc1ccc(C(=O)Nc2cccc(S(=O)(=O)Nc3cccc(C4CCC(=O)NC4=O)c3)c2)cc1` (stereo not shown) [AEV40204, N-(3-(N-(3-(2,6-dioxopiperidin-3-yl)phenyl)sulfamoyl)phenyl)-4-heptylbenzamide], the “Cell viability (% of control)” value in the data set with A549 is listed as 33.6 % of control; in the data set on Jeko-1, 11.6 % of control; in the data set with MM.1R-LR, 49.4 % of control; with MDA-MB-231, 40.4 % of control; in the data set on RD, 50.8 % of control; in the data set with MM.1S, 3.3 % of control. Moreover, the IC50 on cereblon (CRBN) is 0.44 µM.
As for `O=C1CCC(c2cccc(NS(=O)(=O)c3cccc(NC(=O)c4ccc(CCCCCl)cc4)c3)c2)C(=O)N1` (stereo not shown) [AEV41005, 4-(4-chlorobutyl)-N-(3-(N-(3-(2,6-dioxopiperidin-3-yl)phenyl)sulfamoyl)phenyl)benzamide], the “Cell viability (% of control)” value in the data set on A549 is 36.8 % of control; in the data set on Jeko-1, 4.1 % of control; in the data set on MM.1R-LR, 58.2 % of control; with MDA-MB-231, 42.2 % of control; with RD, 28.7 % of control; in the data set on MM.1S, 10.7 % of control. Moreover, on cereblon (CRBN), the IC50 was 1.2 µM.
Take `CCCCc1ccc(C(=O)Nc2cccc(S(=O)(=O)Nc3cccc(C4CCC(=O)NC4=O)c3)c2)cc1` (stereo not shown) [AEV41012, 4-butyl-N-(3-(N-(3-(2,6-dioxopiperidin-3-yl)phenyl)sulfamoyl)phenyl)benzamide]: the “Cell viability (% of control)” value in the data set with A549 is recorded as 94.0 % of control; with Jeko-1, 37.7 % of control; in the data set with MM.1R-LR, 56.7 % of control; in the data set on MDA-MB-231 it was 78.7 % of control; in the data set with RD it was 79.7 % of control; with MM.1S it was 7.4 % of control. Also, the IC50 at cereblon (CRBN) is 0.94 µM.
